This passage reports IC50 results from patent US11505536B2, “Dihydroorotate dehydrogenase inhibitors” (Janssen Biotech, Inc., priority 2019, dated 2022).

In one assay the target is human DHODH (Homo sapiens (Human), UniProt Q02127). The assay is described as follows: DHODH Enzymatic Assay. The conditions noted are these: purified human DHODH, DCIP absorbance, end-point mode; read-out: hDHODH IC50. The assay is classed as biochemical. In outline:
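Purified human DHODH in […] HEPES pH 7.5, 150 mM NaCl, 0.5 mM EDTA, 0.1% Triton X-100; reaction started with substrate mix of 20 mM DHO, 5 mM CoQ6, 1 mM DCIP. End-point read as DCIP reduction (absorbance ~600 nm) after brequinar quench.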

In assay [1] the test system is MOLM-13 cells (human acute myeloid leukemia cells). The assay is described as follows: MOLM-13 Cellular Assay. The assay is classed as cell-based. Conditions: 72 hours exposure, cell viability by CellTiter-Glo. The gist of the method:
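MOLM-13 AML cells, seeded at 5,000/well in RPMI 1640 with 10% FBS, were treated with compounds right after seeding for 72 h at 37 °C, 5% CO2. Viability read by CellTiter-Glo luminescence.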

Chain of human DHODH (Q02127 whole entry): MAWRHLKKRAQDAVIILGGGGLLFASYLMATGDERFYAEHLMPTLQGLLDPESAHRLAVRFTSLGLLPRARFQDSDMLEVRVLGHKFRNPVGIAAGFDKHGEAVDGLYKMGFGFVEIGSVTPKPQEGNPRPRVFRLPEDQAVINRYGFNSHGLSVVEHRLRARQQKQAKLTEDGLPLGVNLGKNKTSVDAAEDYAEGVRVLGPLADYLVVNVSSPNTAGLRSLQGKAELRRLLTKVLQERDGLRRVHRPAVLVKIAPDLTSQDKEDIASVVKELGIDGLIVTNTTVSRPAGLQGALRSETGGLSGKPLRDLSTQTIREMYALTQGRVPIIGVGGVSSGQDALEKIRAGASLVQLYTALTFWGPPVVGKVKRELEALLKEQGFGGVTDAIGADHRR

For `C=C(C)c1cn(-c2cc(OC)ccc2F)c(=O)c2cc(F)c(-n3nc(CO)n(CC)c3=O)cc12` [Example 44, 6-(4-Ethyl-3-(hydroxymethyl)-5-oxo-4,5-dihydro-1H-1,2,4-triazol-1-yl)-7-fluoro-2-(2-fluoro-5-methoxyphenyl)-4-(prop-1-en-2-yl)isoquinolin-1(2H)-one], the IC50 (usually the midpoint of a concentration-inhibition curve) worked out at 2.22 nM at human DHODH and 0.7 nM in assay [1] (Homo sapiens, MOLM-13, 72 h).

For `C=C(C)c1cn(-c2ccccc2Cl)c(=O)c2cc(F)c(-n3nc(CO)n(CC)c3=O)cc12` [Example 45, 2-(2-Chlorophenyl)-6-(4-ethyl-3-(hydroxymethyl)-5-oxo-4,5-dihydro-1H-1,2,4-triazol-1-yl)-7-fluoro-4-(prop-1-en-2-yl)isoquinolin-1(2H)-one], the IC50 at human DHODH was found to be 1.41 nM; in assay [1] (Homo sapiens, MOLM-13, 72 h), 0.3 nM.

Take `C=C(C)c1cn(-c2ccccc2C)c(=O)c2cc(F)c(-n3nc(CO)n(CC)c3=O)cc12` [Example 46, 6-(4-Ethyl-3-(hydroxymethyl)-5-oxo-4,5-dihydro-1H-1,2,4-triazol-1-yl)-7-fluoro-4-(prop-1-en-2-yl)-2-(o-tolyl)isoquinolin-1(2H)-one]: the IC50 was 0.746 nM on human DHODH and 0.3 nM in assay [1] (Homo sapiens, MOLM-13, 72 h).

Turning to `C=C(C)c1cn(-c2cc(OC)ccc2Cl)c(=O)c2cc(F)c(-n3nc(CO)n(CC)c3=O)cc12` [Example 47, 2-(2-Chloro-5-methoxyphenyl)-6-(4-ethyl-3-(hydroxymethyl)-5-oxo-4,5-dihydro-1H-1,2,4-triazol-1-yl)-7-fluoro-4-(prop-1-en-2-yl)isoquinolin-1(2H)-one], the IC50 stood at 1.21 nM at human DHODH and 0.7 nM in assay [1] (Homo sapiens, MOLM-13, 72 h).

Take `CCn1c(CO)nn(-c2cc3c(C(C)C)cn(-c4nc(OC)ccc4Cl)c(=O)c3cc2F)c1=O` [Example 49, 2-(3-Chloro-6-methoxypyridin-2-yl)-6-(4-ethyl-3-(hydroxymethyl)-5-oxo-4,5-dihydro-1H-1,2,4-triazol-1-yl)-7-fluoro-4-isopropylisoquinolin-1(2H)-one]: the IC50 on human DHODH was 1.09 nM; in assay [1] (Homo sapiens, MOLM-13, 72 h) it was 2 nM.

On to `CCn1c(CO)nn(-c2cc3c(C(C)C)cn(-c4c(C)ccnc4OC)c(=O)c3cc2F)c1=O` [Example 50, 6-(4-Ethyl-3-(hydroxymethyl)-5-oxo-4,5-dihydro-1H-1,2,4-triazol-1-yl)-7-fluoro-4-isopropyl-2-(2-methoxy-4-methylpyridin-3-yl)isoquinolin-1(2H)-one], for which the IC50 is 2.75 nM at human DHODH and 7 nM in assay [1] (Homo sapiens, MOLM-13, 72 h).

For `C=C(C)c1cn(-c2c(F)ccc(OC)c2Cl)c(=O)c2cc(F)c(-n3nc(CO)n(CC)c3=O)cc12` [Example 51, 2-(2-Chloro-6-fluoro-3-methoxyphenyl)-6-(4-ethyl-3-(hydroxymethyl)-5-oxo-4,5-dihydro-1H-1,2,4-triazol-1-yl)-7-fluoro-4-(prop-1-en-2-yl)isoquinolin-1(2H)-one], the IC50 is 0.267 nM at human DHODH; 0.1 nM in assay [1]; not above 0.2 nM in assay [1] (Homo sapiens, MOLM-13, 72 h).

On to `C=C(C)c1cn(-c2c(F)cccc2Cl)c(=O)c2cc(F)c(-n3nc(CO)n(CC)c3=O)cc12` [Example 52, 2-(2-Chloro-6-fluorophenyl)-6-(4-ethyl-3-(hydroxymethyl)-5-oxo-4,5-dihydro-1H-1,2,4-triazol-1-yl)-7-fluoro-4-(prop-1-en-2-yl)isoquinolin-1(2H)-one], for which the IC50 was 0.265 nM at human DHODH; 0.1 nM in assay [1]; not above 0.2 nM in assay [1] (Homo sapiens, MOLM-13, 72 h).

With `CCn1c(CO)nn(-c2cc3c(C(C)C)nn(-c4ccccc4C)c(=O)c3cc2F)c1=O` [Example 53, 6-(4-Ethyl-3-(hydroxymethyl)-5-oxo-4,5-dihydro-1H-1,2,4-triazol-1-yl)-7-fluoro-4-isopropyl-2-(o-tolyl)phthalazin-1(2H)-one], the half-maximal inhibitory concentration (IC50) on human DHODH came out at 0.778 nM; in assay [1] (Homo sapiens, MOLM-13, 72 h), 0.7 nM.

As to `CCn1c(CO)nn(-c2cc3c(C(C)C)nn(-c4c(F)cccc4Cl)c(=O)c3cc2F)c1=O` [Example 54, 2-(2-Chloro-6-fluorophenyl)-6-(4-ethyl-3-(hydroxymethyl)-5-oxo-4,5-dihydro-1H-1,2,4-triazol-1-yl)-7-fluoro-4-isopropylphthalazin-1(2H)-one], the IC50 at human DHODH stood at 0.433 nM; in assay [1] (Homo sapiens, MOLM-13, 72 h), 0.4 nM.

Consider `CCn1c(CO)nn(-c2cc3c(C4(C)CC4)cn(-c4c(F)cccc4Cl)c(=O)c3cc2F)c1=O` [Example 58, 2-(2-Chloro-6-fluorophenyl)-6-(4-ethyl-3-(hydroxymethyl)-5-oxo-4,5-dihydro-1H-1,2,4-triazol-1-yl)-7-fluoro-4-(1-methylcyclopropyl)isoquinolin-1(2H)-one], for which the IC50 at human DHODH came to 8.81 nM; in assay [1] (Homo sapiens, MOLM-13, 72 h) it was 4 nM.

Regarding `C=C(C)c1cn(-c2c(C)ccnc2OC)c(=O)c2cc(F)c(-n3nc(CO)n(CC)c3=O)cc12` [Example 59, 6-(4-Ethyl-3-(hydroxymethyl)-5-oxo-4,5-dihydro-1H-1,2,4-triazol-1-yl)-7-fluoro-2-(2-methoxy-4-methylpyridin-3-yl)-4-(prop-1-en-2-yl)isoquinolin-1(2H)-one], the IC50 on human DHODH amounted to 2.23 nM; in assay [1] (Homo sapiens, MOLM-13, 72 h), 5 nM.

`C=C(C)c1cn(-c2c(C)n[nH]c2Cl)c(=O)c2cc(F)c(-n3nc(CO)n(CC)c3=O)cc12` [Example 60, 2-(5-Chloro-3-methyl-1H-pyrazol-4-yl)-6-(4-ethyl-3-(hydroxymethyl)-5-oxo-4,5-dihydro-1H-1,2,4-triazol-1-yl)-7-fluoro-4-(prop-1-en-2-yl)isoquinolin-1(2H)-one]: the IC50 was determined as 0.286 nM at human DHODH and 4 nM in assay [1] (Homo sapiens, MOLM-13, 72 h).

Turning to `CCn1c(CO)nn(-c2cc3c(C(C)C)cn(-c4c(C)cnc(OC)c4Cl)c(=O)c3cc2F)c1=O` [Example 61, 2-(3-Chloro-2-methoxy-5-methylpyridin-4-yl)-6-(4-ethyl-3-(hydroxymethyl)-5-oxo-4,5-dihydro-1H-1,2,4-triazol-1-yl)-7-fluoro-4-isopropylisoquinolin-1(2H)-one], the IC50 was found to be 0.617 nM on human DHODH and 2 nM in assay [1] (Homo sapiens, MOLM-13, 72 h).

As for `C=C(C)c1cn(-c2c(C)cnc(OC)c2Cl)c(=O)c2cc(F)c(-n3nc(CO)n(CC)c3=O)cc12` [Example 62, 2-(3-Chloro-2-methoxy-5-methylpyridin-4-yl)-6-(4-ethyl-3-(hydroxymethyl)-5-oxo-4,5-dihydro-1H-1,2,4-triazol-1-yl)-7-fluoro-4-(prop-1-en-2-yl)isoquinolin-1(2H)-one], the IC50 on human DHODH worked out at 0.836 nM; in assay [1] (Homo sapiens, MOLM-13, 72 h), 2 nM.

Regarding `CCn1c(CO)nn(-c2cc3c(C(C)C)cn(-c4cc(OC)ccc4F)c(=O)c3cc2F)c1=O` [Example 63, 6-(4-Ethyl-3-(hydroxymethyl)-5-oxo-4,5-dihydro-1H-1,2,4-triazol-1-yl)-7-fluoro-2-(2-fluoro-5-methoxyphenyl)-4-isopropylisoquinolin-1(2H)-one], the half-inhibitory concentration (IC50) at human DHODH came to 2.76 nM; in assay [1] (Homo sapiens, MOLM-13, 72 h) it was 2 nM.

Take `CCn1c(CO)nn(-c2cc3c(C(C)C)cn(-c4ccc(F)cc4C)c(=O)c3cc2F)c1=O` [Example 64, 6-(4-Ethyl-3-(hydroxymethyl)-5-oxo-4,5-dihydro-1H-1,2,4-triazol-1-yl)-7-fluoro-2-(4-fluoro-2-methylphenyl)-4-isopropylisoquinolin-1(2H)-one]: the IC50 on human DHODH was 0.459 nM; in assay [1] (Homo sapiens, MOLM-13, 72 h) it was 0.5 nM.

As to `C=C(C)c1cn(-c2cccc(OCCO)c2Cl)c(=O)c2cc(F)c(-n3nc(CO)n(CC)c3=O)cc12` [Example 65, 2-(2-Chloro-3-(2-hydroxyethoxy)phenyl)-6-(4-ethyl-3-(hydroxymethyl)-5-oxo-4,5-dihydro-1H-1,2,4-triazol-1-yl)-7-fluoro-4-(prop-1-en-2-yl)isoquinolin-1(2H)-one], the IC50 on human DHODH was 1.65 nM; in assay [1] (Homo sapiens, MOLM-13, 72 h), 20 nM.

For the compound `C=C(C)c1cn(-c2ccccc2F)c(=O)c2cc(F)c(-n3nc(CO)n(CC)c3=O)cc12` [Example 66, 6-(4-Ethyl-3-(hydroxymethyl)-5-oxo-4,5-dihydro-1H-1,2,4-triazol-1-yl)-7-fluoro-2-(2-fluorophenyl)-4-(prop-1-en-2-yl)isoquinolin-1(2H)-one], the IC50 was less than 0.169 nM on human DHODH and 0.3 nM in assay [1] (Homo sapiens, MOLM-13, 72 h).

Regarding `CCn1c(CO)nn(-c2cc3c(C(C)C)cn(-c4cc(F)ccc4C)c(=O)c3cc2F)c1=O` [Example 67, 6-(4-Ethyl-3-(hydroxymethyl)-5-oxo-4,5-dihydro-1H-1,2,4-triazol-1-yl)-7-fluoro-2-(5-fluoro-2-methylphenyl)-4-isopropylisoquinolin-1(2H)-one], the IC50 on human DHODH is 0.605 nM; in assay [1] (Homo sapiens, MOLM-13, 72 h), 0.9 nM.

As to `CCn1c(CO)nn(-c2cc3c(C(C)C)cn(-c4cc(F)ccc4F)c(=O)c3cc2F)c1=O` [Example 68, 2-(2,5-Difluorophenyl)-6-(4-ethyl-3-(hydroxymethyl)-5-oxo-4,5-dihydro-1H-1,2,4-triazol-1-yl)-7-fluoro-4-isopropylisoquinolin-1(2H)-one], the IC50 was determined as 2.2 nM at human DHODH and 3 nM in assay [1] (Homo sapiens, MOLM-13, 72 h).

On to `CCn1c(CO)nn(-c2cc3c(C(C)C)cn(-c4c(C)cccc4F)c(=O)c3cc2F)c1=O` [Example 69, 6-(4-Ethyl-3-(hydroxymethyl)-5-oxo-4,5-dihydro-1H-1,2,4-triazol-1-yl)-7-fluoro-2-(2-fluoro-6-methylphenyl)-4-isopropylisoquinolin-1(2H)-one], for which the IC50 at human DHODH worked out at 0.435 nM; in assay [1] (Homo sapiens, MOLM-13, 72 h), 0.7 nM.

For `C=C(C)c1cn(-c2cccc(OC)c2Cl)c(=O)c2cc(F)c(-n3nc(CO)n(CC)c3=O)cc12` [Example 70, 2-(2-Chloro-3-methoxyphenyl)-6-(4-ethyl-3-(hydroxymethyl)-5-oxo-4,5-dihydro-1H-1,2,4-triazol-1-yl)-7-fluoro-4-(prop-1-en-2-yl)isoquinolin-1(2H)-one], the IC50 on human DHODH came out at 0.24 nM; in assay [1] (Homo sapiens, MOLM-13, 72 h), 0.4 nM.
